Test results reported in PubChem BioAssay (NCI).
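All cell lines were grown in 96-well plates and treated with compound for 48 hours. Definition used: TGI = concentration required for complete inhibition of growth.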

How the values were obtained:
Assay in all cases: NCI anticancer screen, dose series, 48 h
NCI-H460 lung = test system: NCI-H460 lung
CCRF-CEM leukemia = test system: CCRF-CEM leukemia
SN12C renal = test system: SN12C renal
SNB-19 CNS = test system: SNB-19 CNS
HCC-2998 colon = test system: HCC-2998 colon
U251 CNS = test system: U251 CNS
HCT-15 colon = test system: HCT-15 colon
RPMI-8226 leukemia = test system: RPMI-8226 leukemia
UO-31 renal = test system: UO-31 renal
HL-60(TB) leukemia = test system: HL-60(TB) leukemia
OVCAR-5 ovarian = test system: OVCAR-5 ovarian
SW-620 colon = test system: SW-620 colon
COLO 205 colon = test system: COLO 205 colon
NCI-H522 lung = test system: NCI-H522 lung
UACC-62 melanoma = test system: UACC-62 melanoma
SF-295 CNS = test system: SF-295 CNS
786-0 renal = test system: 786-0 renal
NCI/ADR-RES ovarian = test system: NCI/ADR-RES ovarian
NCI-H23 lung = test system: NCI-H23 lung
MDA-N = test system: MDA-N
BT-549 breast = test system: BT-549 breast
HOP-62 NSCLC = test system: HOP-62 NSCLC
OVCAR-4 ovarian = test system: OVCAR-4 ovarian
A549 NSCLC = test system: A549 NSCLC
HCT-116 colon = test system: HCT-116 colon
SR leukemia = test system: SR leukemia
HOP-92 NSCLC = test system: HOP-92 NSCLC
K-562 leukemia = test system: K-562 leukemia
SF-268 CNS = test system: SF-268 CNS
SK-MEL-28 melanoma = test system: SK-MEL-28 melanoma
EKVX NSCLC = test system: EKVX NSCLC
MOLT-4 leukemia = test system: MOLT-4 leukemia
MDA-MB-231 breast = test system: MDA-MB-231 breast
KM12 colon = test system: KM12 colon
OVCAR-8 ovarian = test system: OVCAR-8 ovarian
PC-3 prostate = test system: PC-3 prostate
HT29 colon = test system: HT29 colon
SNB-75 CNS = test system: SNB-75 CNS
UACC-257 melanoma = test system: UACC-257 melanoma
T-47D breast = test system: T-47D breast
MCF7 breast = test system: MCF7 breast
MDA-MB-435 = test system: MDA-MB-435
TK-10 renal = test system: TK-10 renal
M14 melanoma = test system: M14 melanoma
SF-539 CNS = test system: SF-539 CNS
LOX IMVI melanoma = test system: LOX IMVI melanoma
SK-MEL-5 melanoma = test system: SK-MEL-5 melanoma
SK-OV-3 ovarian = test system: SK-OV-3 ovarian
OVCAR-3 ovarian = test system: OVCAR-3 ovarian
RXF 393 renal = test system: RXF 393 renal
CAKI-1 renal = test system: CAKI-1 renal
IGROV1 ovarian = test system: IGROV1 ovarian
ACHN renal = test system: ACHN renal
MALME-3M melanoma = test system: MALME-3M melanoma
HS 578T breast = test system: HS 578T breast
NCI-H226 lung = test system: NCI-H226 lung
SK-MEL-2 melanoma = test system: SK-MEL-2 melanoma
A498 renal = test system: A498 renal
DU-145 prostate = test system: DU-145 prostate

`Cc1cccc2c1Oc1cc(Cl)ccc1C2NC(=O)CCN1CCCCC1` (centres undefined) showed a TGI (NCI-H460 lung) of 31.6 µM, a TGI (CCRF-CEM leukemia) of 32.4 µM and a TGI (SN12C renal) of 33 µM. It also gave a TGI (SNB-19 CNS) of 33 µM, a TGI (HCC-2998 colon) of 28.3 µM and a TGI (U251 CNS) of 29.5 µM. For the same molecule, the TGI (HCT-15 colon) was 32.7 µM, the TGI (RPMI-8226 leukemia) was 63 µM and the TGI (UO-31 renal) was 29.2 µM. The TGI (HL-60(TB) leukemia) was 38.3 µM, the TGI (OVCAR-5 ovarian) was 31.9 µM and the TGI (SW-620 colon) was 34.9 µM. For the same molecule, the TGI (COLO 205 colon) was 34.6 µM, the TGI (NCI-H522 lung) was 31.3 µM and the TGI (UACC-62 melanoma) was 30 µM. For the same molecule, the TGI (SF-295 CNS) was 33.1 µM, the TGI (786-0 renal) was 28 µM and the TGI (NCI/ADR-RES ovarian) was 32 µM. The TGI (NCI-H23 lung) was 37.5 µM, the TGI (MDA-N) was 33.1 µM and the TGI (BT-549 breast) was 33.4 µM. It also gave a TGI (HOP-62 NSCLC) of 28.3 µM, a TGI (OVCAR-4 ovarian) of 30.9 µM and a TGI (A549 NSCLC) of 37.5 µM. The TGI (HCT-116 colon) was 32.1 µM, the TGI (SR leukemia) was 35 µM and the TGI (HOP-92 NSCLC) was 10.1 µM. For the same molecule, the TGI (K-562 leukemia) was 32 µM, the TGI (SF-268 CNS) was 83.2 µM and the TGI (SK-MEL-28 melanoma) was 29.2 µM. It also gave a TGI (EKVX NSCLC) of 55.5 µM, a TGI (MOLT-4 leukemia) of 34.3 µM and a TGI (MDA-MB-231 breast) of 39 µM. For the same molecule, the TGI (KM12 colon) was 30.8 µM, the TGI (OVCAR-8 ovarian) was 30.2 µM and the TGI (PC-3 prostate) was 30.5 µM. It also gave a TGI (HT29 colon) of 27.1 µM, a TGI (SNB-75 CNS) of 28.1 µM and a TGI (UACC-257 melanoma) of 30.5 µM. The TGI (T-47D breast) was 29.8 µM, the TGI (MCF7 breast) was 33.6 µM and the TGI (MDA-MB-435) was 30.7 µM. For the same molecule, the TGI (TK-10 renal) was 30 µM, the TGI (M14 melanoma) was 34 µM and the TGI (SF-539 CNS) was 31.9 µM. For the same molecule, the TGI (LOX IMVI melanoma) was 30.2 µM and the TGI (SK-MEL-5 melanoma) was 30 µM.
Work on `OC(c1cc(C(O)(C(F)(F)F)C(F)(F)F)ncn1)(C(F)(F)F)C(F)(F)F` yielded a TGI (NCI-H460 lung) greater than 10 µM, a TGI (CCRF-CEM leukemia) greater than 10 µM and a TGI (SK-OV-3 ovarian) greater than 10 µM. It also gave a TGI (SN12C renal) greater than 10 µM, a TGI (OVCAR-3 ovarian) greater than 10 µM and a TGI (RXF 393 renal) greater than 10 µM. For the same molecule, the TGI (SNB-19 CNS) was greater than 10 µM, the TGI (HCC-2998 colon) was greater than 10 µM and the TGI (U251 CNS) was greater than 10 µM. It also gave a TGI (HCT-15 colon) greater than 10 µM, a TGI (RPMI-8226 leukemia) greater than 10 µM and a TGI (UO-31 renal) greater than 10 µM. The TGI (CAKI-1 renal) was greater than 10 µM, the TGI (IGROV1 ovarian) was greater than 10 µM and the TGI (HL-60(TB) leukemia) was greater than 10 µM. The TGI (SW-620 colon) was greater than 10 µM, the TGI (COLO 205 colon) was greater than 10 µM and the TGI (NCI-H522 lung) was greater than 10 µM. It also gave a TGI (UACC-62 melanoma) greater than 10 µM, a TGI (SF-295 CNS) greater than 10 µM and a TGI (786-0 renal) greater than 10 µM. For the same molecule, the TGI (NCI/ADR-RES ovarian) was greater than 10 µM, the TGI (ACHN renal) was greater than 10 µM and the TGI (MALME-3M melanoma) was greater than 10 µM. The TGI (NCI-H23 lung) was greater than 10 µM, the TGI (MDA-N) was greater than 10 µM and the TGI (HOP-62 NSCLC) was greater than 10 µM. It also gave a TGI (OVCAR-4 ovarian) greater than 10 µM, a TGI (A549 NSCLC) greater than 10 µM and a TGI (HCT-116 colon) greater than 10 µM. For the same molecule, the TGI (SR leukemia) was greater than 10 µM, the TGI (HS 578T breast) was greater than 10 µM and the TGI (NCI-H226 lung) was greater than 10 µM. For the same molecule, the TGI (HOP-92 NSCLC) was greater than 10 µM, the TGI (K-562 leukemia) was greater than 10 µM and the TGI (SK-MEL-2 melanoma) was greater than 10 µM. For the same molecule, the TGI (A498 renal) was greater than 10 µM, the TGI (SF-268 CNS) was greater than 10 µM and the TGI (SK-MEL-28 melanoma) was greater than 10 µM. For the same molecule, the TGI (EKVX NSCLC) was greater than 10 µM, the TGI (MOLT-4 leukemia) was greater than 10 µM and the TGI (MDA-MB-231 breast) was greater than 10 µM. For the same molecule, the TGI (KM12 colon) was greater than 10 µM, the TGI (OVCAR-8 ovarian) was greater than 10 µM and the TGI (PC-3 prostate) was greater than 10 µM. For the same molecule, the TGI (HT29 colon) was greater than 10 µM, the TGI (DU-145 prostate) was greater than 10 µM and the TGI (SNB-75 CNS) was greater than 10 µM. For the same molecule, the TGI (UACC-257 melanoma) was greater than 10 µM, the TGI (T-47D breast) was greater than 10 µM and the TGI (MCF7 breast) was greater than 10 µM. The TGI (MDA-MB-435) was greater than 10 µM, the TGI (TK-10 renal) was greater than 10 µM and the TGI (M14 melanoma) was greater than 10 µM. It also gave a TGI (SF-539 CNS) greater than 10 µM, a TGI (LOX IMVI melanoma) greater than 10 µM and a TGI (SK-MEL-5 melanoma) greater than 10 µM.
